Measured values published in PMC7441570 (Chemical biology & drug design, 2019).
pIC50: −log10 of the molar value.

Tests used:
in vitro = conditions: human, Caco-2
human RNase H = conditions: read-out: human RNase H IC50; ref Budihas et al., 2005; cited from earlier work
[1] = tested on: bacterial (Escherichia coli) RNase H; conditions: read-out: bacterial (Escherichia coli) RNase H IC50; ref Budihas et al., 2005; cited from earlier work
HIV-1 RNase H = conditions: read-out: HIV-1 RNase H IC50; in vitro; ref Budihas et al., 2005; cited from earlier work

| Papp (in vitro) | recovery (in vitro) | SMILES | pIC50 (human RNase H) | pIC50 [1] | pIC50 (HIV-1 RNase H) |
| --- | --- | --- | --- | --- | --- |
| 16.3 ×10⁻⁶ cm/s | > 93% | COCCc1ccc(OCC(O)CNC(C)C)cc1 (stereo not shown) [metoprolol] | – | – | – |
| 0.11 ×10⁻⁶ cm/s | > 93% | CC(C)(C)NCC(O)COc1cccc2c1CC(O)C(O)C2 (stereo not shown) [nadolol] | – | – | – |
| – | – | CC(C)c1ccc(O)c(=O)c(O)c1 [β-thujaplicinol] | 5.24 | 4.30 | ~6.70 |
